Values of other authors, collected in patent publication US6503506B1, “Nutrient therapy for immuno-compromised patients” (Millenium Biotechnologies, Inc., priority 2001, dated 2003).

Columns and labels:
mitochondrial DNA = details: patients on long-term therapy

## COC1=C(OC)C(=O)C(C/C=C(\C)CC/C=C(\C)CC/C=C(\C)CC/C=C(\C)CC/C=C(\C)CC/C=C(\C)CC/C=C(\C)CC/C=C(\C)CC/C=C(\C)CCC=C(C)C)=C(C)C1=O [COQ10, Coenzyme Q10]
HIV patients, oral administration
  T4/T8 ratios of lymphocytes: positive increase in T4/T8 rations
Human studies, administered orally
  IgG and T4-lymphocytes: increases IgG and T4-lymphocytes

## Cc1cn([C@H]2C[C@H](N=[N+]=[N-])[C@@H](CO)O2)c(=O)[nH]c1=O [zidovudine (AZT), zidovudine]
Mitochondrial DNA
  levels of mitochondrial DNA in muscle: depletes levels of mitochondrial DNA in muscle

## superoxide dismutase [SOD]
HIV; indicator of virus presence in the cells
  levels of the virus core protein: reduced the levels of the virus core protein
HIV; infected white blood cells from patients with HIV
  spread of HIV through infected cells: slowed down the spread of HIV through the infected cells
